# Experimental data published in US20050009840A1 (SUGEN, INC., priority 2003, published 2005).
# Molecular target: T1, HGFR (Homo sapiens, UniProt P08581)
# T1 construct: purchased Upstate 14-526
# Test: HGFR continuous-coupled spectrophotometric assay
# Assay type: biochemical
# Details: Table 3, column 'Ki (μM) or I (%)': cells without % sign; read-out: Ki
# T1 sequence (P08581 974-1390 limits assumed): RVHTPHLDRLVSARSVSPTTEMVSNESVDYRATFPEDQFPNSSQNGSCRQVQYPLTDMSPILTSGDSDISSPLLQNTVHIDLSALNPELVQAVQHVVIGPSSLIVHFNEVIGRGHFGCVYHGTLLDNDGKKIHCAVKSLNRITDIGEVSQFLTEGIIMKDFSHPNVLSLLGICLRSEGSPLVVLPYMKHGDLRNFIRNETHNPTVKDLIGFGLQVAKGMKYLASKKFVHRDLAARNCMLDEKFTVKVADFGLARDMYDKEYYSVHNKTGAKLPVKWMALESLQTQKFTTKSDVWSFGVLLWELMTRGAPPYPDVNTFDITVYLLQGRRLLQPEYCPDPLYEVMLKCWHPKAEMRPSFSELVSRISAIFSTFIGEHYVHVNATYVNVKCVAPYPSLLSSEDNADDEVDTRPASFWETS
row,Compound,Ki [µM]
1,"CC(Oc1cc(-c2ccc(C(=O)N3CC4C(N)C4C3)cc2)cnc1N)c1c(Cl)ccc(F)c1Cl (stereo not shown) [Example I-635, (6-Amino-3-aza-bicyclo[3.1.0]hex-3-yl)-(4-{6-amino-5-[1-(2,6-dichloro-3-fluoro-phenyl)-ethoxy]-pyridin-3-yl}-phenyl)-methanone]",0.0554
2,"CC(Oc1cc(-c2ccc(OCCN3CCOCC3)nc2)cnc1N)c1c(Cl)ccc(F)c1Cl (stereo not shown) [Example I-636, 5-[1-(2,6-Dichloro-3-fluoro-phenyl)-ethoxy]-6′-(2-morpholin-4-yl-ethoxy)-[3,3′]bipyridinyl-6-ylamine]",0.109
3,"CC(Oc1cc(-c2ccc(=O)n(CCN3CCCC3)c2)cnc1N)c1c(Cl)ccc(F)c1Cl (stereo not shown) [Example I-637, 6′-Amino-5′-[1-(2,6-dichloro-3-fluoro-phenyl)-ethoxy]-1-(2-pyrrolidin-1-yl-ethyl)-1H-[3,3′]-bipyridinyl-6-one]",0.692
4,"CC(Oc1cc(-c2ccc(OCCN3CCCC3)nc2)cnc1N)c1c(Cl)ccc(F)c1Cl (stereo not shown) [Example I-638, 5-[1-(2,6-Dichloro-3-fluoro-phenyl)-ethoxy]-6′-(2-pyrrolidin-1-yl-ethoxy)-[3,3′]bipyridinyl-6-ylamine]",0.094
5,"CC(Oc1cc(-c2ccc(=O)n(CCC3CCCN3C)c2)cnc1N)c1c(Cl)ccc(F)c1Cl (stereo not shown) [Example I-639, 6′-Amino-5′-[1-(2,6-dichloro-3-fluoro-phenyl)-ethoxy]-1-[2-(1-methyl-pyrrolidin-2-yl)-ethyl]-1H-[3,3′]bipyridinyl-6-one]",0.513
6,"CC(Oc1cc(-c2ccc(O)nc2)cnc1N)c1c(Cl)ccc(F)c1Cl (stereo not shown) [Example I-643, 6′-Amino-5′-[1-(2,6-dichloro-3-fluoro-phenyl)-ethoxy]-1H-[3,3′]-bipyridinyl-6-one]",0.0432
7,"CC(Oc1cc(-c2cncc(Br)c2)cnc1N)c1c(Cl)ccc(F)c1Cl (stereo not shown) [Example I-644, 5′-Bromo-5-[1-(2,6-dichloro-3-fluoro-phenyl)-ethoxy]-[3,3′]bipyridinyl-6-ylamine]",0.196
8,"CC(Oc1cc(-c2ccc(N(C)C)cc2)cnc1N)c1c(Cl)ccc(F)c1Cl (stereo not shown) [Example I-645, 3-[1-(2,6-Dichloro-3-fluoro-phenyl)-ethoxy]-5-(4-dimethylamino-phenyl)-pyridin-2-ylamine]",0.157
9,"COc1ncccc1-c1cnc(N)c(OC(C)c2c(Cl)ccc(F)c2Cl)c1 (stereo not shown) [Example I-646, 5-[1-(2,6-Dichloro-3-fluoro-phenyl)-ethoxy]-2′-methoxy-[3,3′]bipyridinyl-6-ylamine]",0.099
10,"CC(Oc1cc(-c2ccc3[nH]ccc3c2)cnc1N)c1c(Cl)ccc(F)c1Cl (stereo not shown) [Example I-647, 3-[1-(2,6-Dichloro-3-fluoro-phenyl)-ethoxy]-5-(1H-indol-5-yl)-pyridin-2-ylamine]",0.166
11,"CCC(Oc1cc(-c2ccc(C(=O)N3C[C@@H](C)N[C@@H](C)C3)cc2)cnc1N)c1c(Cl)cccc1Cl (stereo partly shown) [Example I-648, (4-{6-Amino-5-[1-(2,6-dichloro-phenyl)-propoxy]-pyridin-3-yl}-phenyl)-(3,5-dimethyl-piperazin-1-yl)-methanone]",0.553

# Same assay, conditions: at 50 nM; Table 5, library procedure 40; read-out: % inhibition (percent c-MET inhibition)
row,Compound,inhibition at 0.05 µM [%]
1,CC(Oc1cc(-c2ccc(C(=O)NCCC3CCCN3C)cc2)cnc1N)c1c(Cl)ccc(F)c1Cl [Example L-1],58
2,CC(Oc1cc(-c2ccc(C(=O)NCCCN3CCOCC3)cc2)cnc1N)c1c(Cl)ccc(F)c1Cl [Example L-2],59
3,CC(Oc1cc(-c2ccc(C(=O)NCCCN3CCN(C)CC3)cc2)cnc1N)c1c(Cl)ccc(F)c1Cl [Example L-3],63
4,CC(Oc1cc(-c2ccc(C(=O)NC3CCN(Cc4ccccc4)CC3)cc2)cnc1N)c1c(Cl)ccc(F)c1Cl [Example L-4],47
5,CC(Oc1cc(-c2ccc(C(=O)NCCCO)cc2)cnc1N)c1c(Cl)ccc(F)c1Cl [Example L-5],68
6,CC(Oc1cc(-c2ccc(C(=O)NCCN3CCCCC3)cc2)cnc1N)c1c(Cl)ccc(F)c1Cl [Example L-6],69
7,CC(CO)NC(=O)c1ccc(-c2cnc(N)c(OC(C)c3c(Cl)ccc(F)c3Cl)c2)cc1 [Example L-7],66
8,CC(Oc1cc(-c2ccc(C(=O)NCCCN3CCCCC3C)cc2)cnc1N)c1c(Cl)ccc(F)c1Cl [Example L-8],72
9,CC(Oc1cc(-c2ccc(C(=O)NCc3cccnc3)cc2)cnc1N)c1c(Cl)ccc(F)c1Cl [Example L-9],64
10,CC(Oc1cc(-c2ccc(C(=O)NCc3ccccn3)cc2)cnc1N)c1c(Cl)ccc(F)c1Cl [Example L-10],67
11,CC(Oc1cc(-c2ccc(C(=O)NCCc3ccccn3)cc2)cnc1N)c1c(Cl)ccc(F)c1Cl [Example L-11],67
12,CC(Oc1cc(-c2ccc(C(=O)NCCOCCO)cc2)cnc1N)c1c(Cl)ccc(F)c1Cl [Example L-13],76
13,CC(Oc1cc(-c2ccc(C(=O)N[C@H]3CCN(Cc4ccccc4)C3)cc2)cnc1N)c1c(Cl)ccc(F)c1Cl (stereo partly drawn) [Example L-14],72
14,CC(Oc1cc(-c2ccc(C(=O)N[C@@H]3CCN(Cc4ccccc4)C3)cc2)cnc1N)c1c(Cl)ccc(F)c1Cl (stereo partly drawn) [Example L-15],67
15,CC(Oc1cc(-c2ccc(C(=O)NCCCN(C)C)cc2)cnc1N)c1c(Cl)ccc(F)c1Cl [Example L-16],83
16,CC(Oc1cc(-c2ccc(C(=O)NC3CCN(Cc4ccccc4)C3)cc2)cnc1N)c1c(Cl)ccc(F)c1Cl [Example L-17],76
17,CC(Oc1cc(-c2ccc(C(=O)NCCc3ccccc3)cc2)cnc1N)c1c(Cl)ccc(F)c1Cl [Example L-18],66
18,C[C@H](Oc1cc(-c2ccc(C(=O)N[C@H](CO)c3ccccc3)cc2)cnc1N)c1c(Cl)ccc(F)c1Cl [Example L-20],69
19,CC(Oc1cc(-c2ccc(C(=O)NCC(N)=O)cc2)cnc1N)c1c(Cl)ccc(F)c1Cl [Example L-21],86
20,COc1cc(CNC(=O)c2ccc(-c3cnc(N)c(OC(C)c4c(Cl)ccc(F)c4Cl)c3)cc2)ccc1O [Example L-22],64
21,CC(=O)NCCNC(=O)c1ccc(-c2cnc(N)c(OC(C)c3c(Cl)ccc(F)c3Cl)c2)cc1 [Example L-24],71
22,CC(Oc1cc(-c2ccc(C(=O)NCC(C)(C)CN(C)C)cc2)cnc1N)c1c(Cl)ccc(F)c1Cl [Example L-25],77
23,CC(Oc1cc(-c2ccc(C(=O)N3CCC(N(C)C)CC3)cc2)cnc1N)c1c(Cl)ccc(F)c1Cl [Example L-26],92
24,CC(Oc1cc(-c2ccc(C(=O)NCc3ccncc3)cc2)cnc1N)c1c(Cl)ccc(F)c1Cl [Example L-27],74

row,Compound,inhibition at 0.05 µM [%]
1,CC(Oc1cc(-c2ccc(C(=O)N3CCC(O)(c4ccccc4)CC3)cc2)cnc1N)c1c(Cl)ccc(F)c1Cl [Example L-28],64
2,CC(Oc1cc(-c2ccc(C(=O)N3CCC(O)CC3)cc2)cnc1N)c1c(Cl)ccc(F)c1Cl [Example L-29],86
3,CCN1CCCC1CNC(=O)c1ccc(-c2cnc(N)c(OC(C)c3c(Cl)ccc(F)c3Cl)c2)cc1 [Example L-30],80
4,CC(Oc1cc(-c2ccc(C(=O)N(C)C3CCN(C)CC3)cc2)cnc1N)c1c(Cl)ccc(F)c1Cl [Example L-32],92
5,CC(Oc1cc(-c2ccc(C(=O)N3CCN(c4ccccn4)CC3)cc2)cnc1N)c1c(Cl)ccc(F)c1Cl [Example L-33],63
6,COc1ccc(CNC(=O)c2ccc(-c3cnc(N)c(OC(C)c4c(Cl)ccc(F)c4Cl)c3)cc2)cc1OC [Example L-34],62
7,CC(Oc1cc(-c2ccc(C(=O)NCCc3ccccc3F)cc2)cnc1N)c1c(Cl)ccc(F)c1Cl [Example L-35],55
8,CC(Oc1cc(-c2ccc(C(=O)N3CCN(Cc4ccccc4)CC3)cc2)cnc1N)c1c(Cl)ccc(F)c1Cl [Example L-36],62
9,CC(Oc1cc(-c2ccc(C(=O)N(C)CCc3ccccn3)cc2)cnc1N)c1c(Cl)ccc(F)c1Cl [Example L-37],75
10,CC(C)NC(=O)CN1CCN(C(=O)c2ccc(-c3cnc(N)c(OC(C)c4c(Cl)ccc(F)c4Cl)c3)cc2)CC1 [Example L-38],86
11,CC(Oc1cc(-c2ccc(C(=O)N3CCCN(C)CC3)cc2)cnc1N)c1c(Cl)ccc(F)c1Cl [Example L-39],77
12,CC(Oc1cc(-c2ccc(C(=O)N3CCC(Cc4ccccc4)CC3)cc2)cnc1N)c1c(Cl)ccc(F)c1Cl [Example L-40],55
13,CCN(Cc1ccncc1)C(=O)c1ccc(-c2cnc(N)c(OC(C)c3c(Cl)ccc(F)c3Cl)c2)cc1 [Example L-41],84
14,CCN(CC)CCN(C)C(=O)c1ccc(-c2cnc(N)c(OC(C)c3c(Cl)ccc(F)c3Cl)c2)cc1 [Example L-43],85
15,CCN(CC)C(=O)C1CCCN(C(=O)c2ccc(-c3cnc(N)c(OC(C)c4c(Cl)ccc(F)c4Cl)c3)cc2)C1 [Example L-44],55
16,CC(Oc1cc(-c2ccc(C(=O)N3CCN(CC(=O)N4CCCC4)CC3)cc2)cnc1N)c1c(Cl)ccc(F)c1Cl [Example L-46],78
17,C[C@H](Oc1cc(-c2ccc(C(=O)N3CCCC[C@@H]3CCO)cc2)cnc1N)c1c(Cl)ccc(F)c1Cl [Example L-47],83
18,CC(Oc1cc(-c2ccc(C(=O)N3CCN(CCCO)CC3)cc2)cnc1N)c1c(Cl)ccc(F)c1Cl [Example L-49],74
19,CC(Oc1cc(-c2ccc(C(=O)NCC(C)(C)CO)cc2)cnc1N)c1c(Cl)ccc(F)c1Cl [Example L-50],73
20,C[C@H](Oc1cc(-c2ccc(C(=O)N[C@H]3CC[C@H](O)CC3)cc2)cnc1N)c1c(Cl)ccc(F)c1Cl [Example L-51],73
21,CCOC(=O)N1CCC(NC(=O)c2ccc(-c3cnc(N)c(OC(C)c4c(Cl)ccc(F)c4Cl)c3)cc2)CC1 [Example L-52],66
22,COCCCNC(=O)c1ccc(-c2cnc(N)c(OC(C)c3c(Cl)ccc(F)c3Cl)c2)cc1 [Example L-54],95
23,CC(O)CNC(=O)c1ccc(-c2cnc(N)c(OC(C)c3c(Cl)ccc(F)c3Cl)c2)cc1 [Example L-56],83
